The values below are quoted from earlier work in patent publication US20240285546A1, “TRANSDERMAL THERAPEUTIC SYSTEM CONTAINING AGOMELATINE” (LTS LOHMANN Therapie-Systeme AG, priority 2019, published 2024).

Assay in series [1]: not given
The source holds these as a separate data set.

With `COc1ccc2cccc(CCNC(C)=O)c2c1` [agomelatine, N-(2-(7-Methoxy-1-naphthyl)ethyl)acetamide], the Solubility in water result was “poorly soluble”. Further, in series [1] (in steady state), the Volume of distribution is 35 L. In series [1] (oral agomelatine), the Oral absorption is listed as greater than 80% and the Overall bioavailability entry was “less than 5%”. Moreover, in series [1] (patients with moderate hepatic impairment compared to healthy subjects), the “Increase in agomelatine exposure (AUC and cmax)” value is “up to 140 fold”.
